Assay results reported in US5191079A, “Quinolinecarboxylic acid derivatives” (priority 1990, dated 1993).
Converted amounts (≈) assume the structure as drawn. Where a name gives a salt, the structure may show the parent alone. Read-outs that look alike come from different tables or passages of the source.

Assays:
Type in all cases: cell-based
[1] = system: Staphylococcus epidermidis IAM 1296; experiment: MIC, Experiment 1; settings: IAM1296, S. epidermidis IAM 1296, Gram +, read-out: Min. inhib. concentr. (MIC)
Method: The compounds of the present invention ([…] and Q) were each dissolved in dimethylsulfoxide to prepare a solution of 5000 μg/ml in concentration. The compounds of the present invention (I, J and K) and the known compound (Y) were each dissolved in sterilized distilled water to prepare a solution of 5000 μg/ml in concentration. […] The test was carried out by a method as appointed by Japan Society of Chemotherapy [cf. Chemotherapy, 29, 76-79 (1981), TOKYO]. As to Streptococcus pneumoniae and Streptococcus pyogenes, Brain heart infusion broth (manufactured by DIFCO) was used as the medium for the preculture thereof, and a heart infusion agar medium containing 5% defibrinated horse blood (manufactured by Nissui Seiyaku K. K., Japan) was used as the medium for the measurement of minimum inhibitory concentration (MIC). As to other microorganisms, a sensitivity test broth (manufactured by Nissui Seiyaku K. K.) was used as the medium for the preculture thereof, and a sensitivity test agar medium (manufactured by Nissui Seiyaku K. K.) was used as the medium for the measurement of MIC.

[2] = system: clinically isolated Enterococcus faecalis; experiment: In vitro antibacterial activity against clinical isolates, Experiment 2
Method: (§1) The above solutions were then diluted with sterilized distilled water to prepare a standard solution with a concentration of the test compound: 1000 μg/ml each.
(§2) For the preculture of each microorganism, there was used as the medium a sensitivity test broth (manufactured by Nissui Seiyaku K. K., Japan), and for the measurement of MIC, there was used a sensitivity test agar medium (manufactured by Nissui Seiyaku K. K.).
(§3) The clinically isolates used above were isolated from Nov. 1988 to Jun. 1989 and were obtained from Research Section, Tokyo Clinical Research Center.

[3] = system: clinically isolated Enterococcus faecium; experiment: as above
Method: as §1, §2, §3

[4] = system: clinically isolated Staphylococcus aureus; experiment: as above; settings: for MIC50: 50% of strains, read-out: MIC50
Method: as §1, §2, §3

[5] = system: clinically isolated Staphylococcus epidermidis; experiment: as above; settings: Staphylococcus epidermidis
Method: as §1, §2, §3

[6] = 25 clinical strains E. faecalis
[7] = 25 clinical strains E. faecalis, 50% of strains, read-out: MIC50
[8] = 25 clinical strains E. faecalis, 90% of strains, read-out: MIC90
[9] = 25 clinical strains S. aureus incl. 16 methicillin resistant
[10] = 25 clinical strains S. epidermidis
[11] = 25 clinical strains S. epidermidis, 90% of strains, read-out: MIC90
[12] = 25 clinical strains E. faecium, 90% of strains, read-out: MIC90
[13] = 25 clinical strains S. aureus incl. 16 methicillin resistant, 90% of strains, read-out: MIC90
[14] = 25 clinical strains S. epidermidis, 50% of strains, read-out: MIC50

| SMILES | MIC [1] | MIC [2, 6] | MIC50 [2, 7] | MIC90 [2, 8] | MIC50 [3] | MIC90 [3] | MIC ([3]; 25 clinical strains E. faecium) | MIC90 [4] | MIC [4, 9] | MIC50 [4, 9] | MIC50 [5] | MIC [5, 10] | MIC90 [5, 11] | MIC50 [2] | MIC90 [2] | MIC90 [3, 12] | MIC90 [4, 13] | MIC90 [5] | MIC50 [5, 14] |
| --- | --- | --- | --- | --- | --- | --- | --- | --- | --- | --- | --- | --- | --- | --- | --- | --- | --- | --- | --- |
| CN1Cc2csc3c(C(=O)O)c(=O)c4cc(F)c(N5CCO[C@@H](CO)C5)c1c4n23 [Compound (N), 9,1-(Methylimino)methano-7-fluoro-8-[(2R)-2-hydroxymethylmorpholino]-5-oxo-5H-thiazolo[3,2-a]quinoline-4-caboxylic acid] | 0.05 µg/mL (≈ 0.119 µM) | 0.05 to 3.13 µg/mL (≈ 0.119 to 7.46 µM) | 0.2 µg/mL (≈ 0.477 µM) | 3.13 µg/mL (≈ 7.46 µM) | 1.56 µg/mL (≈ 3.72 µM) | 6.25 µg/mL (≈ 14.9 µM) | 0.1 to 25 µg/mL (≈ 0.238 to 59.6 µM) | 0.78 µg/mL (≈ 1.86 µM) | 0.006 to 0.78 µg/mL (≈ 0.0143 to 1.86 µM) | 0.013 µg/mL (≈ 0.031 µM) | 0.025 µg/mL (≈ 0.0596 µM) | 0.006 to 0.78 µg/mL (≈ 0.0143 to 1.86 µM) | 0.39 µg/mL (≈ 0.93 µM) |  |  |  |  |  |  |
| CN1Cc2csc3c(C(=O)O)c(=O)c4cc(F)c(N5CCN(C)C(CF)C5)c1c4n23 (stereo not shown) [Compound (K), 9,1-(methylimino)methano-7-fluoro-8-(3-fluoromethyl-4-methyl-1-piperazinyl)-5-oxo-5H-thiazolo[3,2-a]quinoline-4-carboxylic acid hydrochloride] | 0.1 µg/mL | 0.2 to 6.25 µg/mL |  |  | 1.56 µg/mL |  | 0.2 to 12.5 µg/mL |  | 0.025 to 1.56 µg/mL | 0.05 µg/mL |  | 0.05 to 1.56 µg/mL |  | 0.39 µg/mL | 6.25 µg/mL | 12.5 µg/mL | 1.56 µg/mL | 0.78 µg/mL | 0.05 µg/mL |
| CN1Cc2csc3c(C(=O)O)c(=O)c4cc(F)c(N5CCO[C@H](CO)C5)c1c4n23 [Compound (M), 9,1-(Methylimino)methano-7-fluoro-8-[ (2S)-2-hydroxymethylmorpholino]-5-oxo-5H-thiazolo[3,2-a]quinoline-4-carboxylic acid] | 0.05 µg/mL (≈ 0.119 µM) | 0.05 to 3.13 µg/mL (≈ 0.119 to 7.46 µM) | 0.2 µg/mL (≈ 0.477 µM) | 3.13 µg/mL (≈ 7.46 µM) | 1.56 µg/mL (≈ 3.72 µM) |  | 0.1 to 25 µg/mL (≈ 0.238 to 59.6 µM) | 0.78 µg/mL (≈ 1.86 µM) | 0.006 to 0.78 µg/mL (≈ 0.0143 to 1.86 µM) | 0.013 µg/mL (≈ 0.031 µM) | 0.025 µg/mL (≈ 0.0596 µM) | 0.006 to 0.78 µg/mL (≈ 0.0143 to 1.86 µM) | 0.39 µg/mL (≈ 0.93 µM) |  |  | 3.13 µg/mL (≈ 7.46 µM) |  |  |  |
| CN1Cc2csc3c(C(=O)O)c(=O)c4cc(F)c(N5CCC(O)CC5)c1c4n23 [Compound (L), 9,1-(Methylimino)methano-7-fluoro-8-(4-hydroxypiperidino)-5-oxo-5H-thiazolo[3,2-a]quinoline-4-carboxylic acid] | 0.013 µg/mL (≈ 0.0322 µM) | 0.05 to 1.56 µg/mL (≈ 0.124 to 3.87 µM) | 0.05 µg/mL (≈ 0.124 µM) | 1.56 µg/mL (≈ 3.87 µM) | 0.39 µg/mL (≈ 0.967 µM) |  | 0.05 to 6.25 µg/mL (≈ 0.124 to 15.5 µM) |  | 0.006 to 0.39 µg/mL (≈ 0.0149 to 0.967 µM) | ≤ 0.006 µg/mL |  | 0.006 to 0.39 µg/mL (≈ 0.0149 to 0.967 µM) | 0.39 µg/mL (≈ 0.967 µM) |  |  | 3.13 µg/mL (≈ 7.76 µM) | 0.39 µg/mL (≈ 0.967 µM) |  | 0.013 µg/mL (≈ 0.0322 µM) |
| CN1Cc2csc3c(C(=O)O)c(=O)c4cc(F)c(N5CCN(C)C(CO)C5)c1c4n23 (stereo not shown) [Compound (I), 9,1-(Methylimino)methano-7-fluoro-8-(3-hydroxymethyl-4-methyl-1-piperazinyl)-5-oxo-5H-thiazolo-[3,2-a]quinoline-4-carboxylic acid hydrochloride] | 0.2 µg/mL | 0.2 to 12.5 µg/mL |  | 12.5 µg/mL | 3.13 µg/mL |  | 0.2 to 25 µg/mL | 6.25 µg/mL | 0.1 to 12.5 µg/mL | 0.2 µg/mL |  | 0.05 to 3.13 µg/mL | 3.13 µg/mL | 0.39 µg/mL |  | 12.5 µg/mL |  |  | 0.1 µg/mL |
| CN1Cc2csc3c(C(=O)O)c(=O)c4cc(F)c(N5CCOC(CCl)C5)c1c4n23 (stereo not shown) [Compound (D), 9,1-(Methylimino)methano-7-fluoro-8-(2-chloromethylmorpholino)-5-oxo-5H-thiazolo[3,2-a]quinoline-4-carboxylic acid] | 0.025 µg/mL (≈ 0.0571 µM) | 0.05 to 3.13 µg/mL (≈ 0.114 to 7.15 µM) | 0.2 µg/mL (≈ 0.457 µM) | 1.56 µg/mL (≈ 3.56 µM) | 0.39 µg/mL (≈ 0.891 µM) |  | 0.05 to 3.13 µg/mL (≈ 0.114 to 7.15 µM) |  | 0.006 to 0.2 µg/mL (≈ 0.0137 to 0.457 µM) | 0.013 µg/mL (≈ 0.0297 µM) |  | 0.006 to 0.39 µg/mL (≈ 0.0137 to 0.891 µM) | 0.2 µg/mL (≈ 0.457 µM) |  |  | 3.13 µg/mL (≈ 7.15 µM) | 0.2 µg/mL (≈ 0.457 µM) |  | 0.013 µg/mL (≈ 0.0297 µM) |
| CN1Cc2csc3c(C(=O)O)c(=O)c4cc(F)c(N5CCC(N(C)C)CC5)c1c4n23 [Compound (H), 9,1-(methylimino)methano-7-fluoro-8-(4-dimethylaminopiperidino)-5-oxo-5H-thiazolo[3,2-a]quinoline-4-carboxylic acid] | 0.2 µg/mL (≈ 0.465 µM) | 0.2 to 6.25 µg/mL (≈ 0.465 to 14.5 µM) |  | 3.13 µg/mL (≈ 7.27 µM) | 1.56 µg/mL (≈ 3.62 µM) |  | 0.2 to 25 µg/mL (≈ 0.465 to 58.1 µM) |  | 0.05 to 3.13 µg/mL (≈ 0.116 to 7.27 µM) | 0.1 µg/mL (≈ 0.232 µM) |  | 0.05 to 3.13 µg/mL (≈ 0.116 to 7.27 µM) | 3.13 µg/mL (≈ 7.27 µM) | 0.39 µg/mL (≈ 0.906 µM) |  | 12.5 µg/mL (≈ 29 µM) | 3.13 µg/mL (≈ 7.27 µM) |  | 0.05 µg/mL (≈ 0.116 µM) |
| CCOCC1CN(c2c(F)cc3c(=O)c(C(=O)O)c4scc5n4c3c2N(C)C5)CCO1 (stereo not shown) [Compound (Q), 9,1-(Methylimino)methano-7-fluoro-8-(2-ethoxymethylmorpholino)-5-oxo-5H-thiazolo[3,2-a]quinoline-4-carboxylic acid] | 0.1 µg/mL (≈ 0.223 µM) | 0.05 to 6.25 µg/mL (≈ 0.112 to 14 µM) |  |  | 3.13 µg/mL (≈ 6.99 µM) |  | 0.2 to 25 µg/mL (≈ 0.447 to 55.9 µM) | 0.78 µg/mL (≈ 1.74 µM) | 0.006 to 0.78 µg/mL (≈ 0.0134 to 1.74 µM) | 0.013 µg/mL (≈ 0.0291 µM) | 0.025 µg/mL (≈ 0.0559 µM) | 0.006 to 0.78 µg/mL (≈ 0.0134 to 1.74 µM) | 0.39 µg/mL (≈ 0.872 µM) | 0.39 µg/mL (≈ 0.872 µM) | 6.25 µg/mL (≈ 14 µM) | 12.5 µg/mL (≈ 27.9 µM) |  |  |  |
| COC[C@@H]1CN(c2c(F)cc3c(=O)c(C(=O)O)c4scc5n4c3c2N(C)C5)CCO1 [Compound (O), 9,1-(Methylimino)methano-7-fluoro-8-[(2S)-2-methoxymethylmorpholino)-5-oxo-5H-thiazolo[3,2-a]quinoline-4-carboxylic acid] | 0.05 µg/mL (≈ 0.115 µM) | 0.05 to 3.13 µg/mL (≈ 0.115 to 7.22 µM) | 0.2 µg/mL (≈ 0.461 µM) | 3.13 µg/mL (≈ 7.22 µM) | 3.13 µg/mL (≈ 7.22 µM) | 6.25 µg/mL (≈ 14.4 µM) | 0.1 to 12.5 µg/mL (≈ 0.231 to 28.8 µM) | 0.78 µg/mL (≈ 1.8 µM) | 0.006 to 0.78 µg/mL (≈ 0.0138 to 1.8 µM) | 0.013 µg/mL (≈ 0.03 µM) |  | 0.006 to 0.78 µg/mL (≈ 0.0138 to 1.8 µM) | 0.39 µg/mL (≈ 0.9 µM) |  |  |  |  |  | 0.05 µg/mL (≈ 0.115 µM) |
| CN1Cc2csc3c(C(=O)O)c(=O)c4cc(F)c(N5CCC(=O)CC5)c1c4n23 [Compound (G), 9,1-(Methylimino)methano-7-fluoro-8-(4-oxopiperidino)-5-oxo-5H-thiazolo[3,2-a]quinoline-4-carboxylic acid] | 0.013 µg/mL (≈ 0.0324 µM) | 0.025 to 1.56 µg/mL (≈ 0.0623 to 3.89 µM) | 0.05 µg/mL (≈ 0.125 µM) | 1.56 µg/mL (≈ 3.89 µM) | 0.39 µg/mL (≈ 0.972 µM) |  | 0.025 to 3.13 µg/mL (≈ 0.0623 to 7.8 µM) |  | 0.006 to 0.39 µg/mL (≈ 0.0149 to 0.972 µM) | ≤ 0.006 µg/mL |  | 0.006 to 0.2 µg/mL (≈ 0.0149 to 0.498 µM) | 0.2 µg/mL (≈ 0.498 µM) |  |  | 3.13 µg/mL (≈ 7.8 µM) | 0.2 µg/mL (≈ 0.498 µM) |  | 0.013 µg/mL (≈ 0.0324 µM) |
